Measurements as given in patent US10647680B2, “Urea compound, preparation method therefor and medical use thereof” (Ancureall Pharmaceutical (Shanghai) Co., Ltd., priority 2016, dated 2020).

Legend:
[1] = test system: OCI-AML3 (NPMc+ mutant type); experiment: In vitro growth inhibition (GI50), OCI-AML3; format: cell-based; details: Homo sapiens, OCI-AML-3; Cell lines of leukemia; read-out: GI 50 OCI- AML3 NPMc+
[2] = test system: HCC827 (EGFR exon19 E746-A750 deletion); experiment: In vitro growth inhibition (GI50), HCC827; format: cell-based; details: Homo sapiens; HCC827, EGFR DelE746-A750
Excerpt: Tumor cell line is an effective cell model for studying the inhibition of tumor cell growth or proliferation in vitro. In the present invention, a representative tumor cell line was selected to determine the cell growth inhibition activity of the present compound. All cell lines used were from ATCC, DSMZ, and the Cell Bank of the Chinese Academy of Sciences. Cell culture conditions and methods were in accordance with the requirements of each cell line. Cells were subcultured in vitro for no more than 3 passages each time, and as required, single-clone purification and identification of cell lines could be carried out.
The cell culture media used were RPMI1640 (Gibco), MEM (Gibco), McCOY'S5A (Gibco), and IMDM (Gibco). The complete medium was prepared by supplement with 5˜20% fetal calf serum (Gibco), 1% double-antibiotics (10000 units/mL penicillin and 10000 units/mL), 2 mM glutamine or 1 mM sodium pyruvate, respectively.
Human epidermal cancer cell line A431 (EGFR WT, amplification and high expression, from Shanghai Cell Bank of Chinese Academy of Sciences and ATCC), human lung cancer cell line NCI-H292 (EGFR WT, purchased from Shanghai Cell Bank of Chinese Academy of Sciences), NSCLC cell lines PC-9 and HCC827 (EGFR exon19 E746-A750 deletion, two cell lines are sensitive to the first-generation EGFR PTK inhibitor), NSCLC cell line NCI-H1975 (EGFR L858R/T790M and the first-generation EGFR inhibitor resistance, ATCC) were cultured with 1×RPMI1640 complete medium (supplement with 10% FBS), respectively.
Adherent cells were digested with 0.25% pancreatin-EDTA (Gibco). The suspension cells were collected by centrifugation. The supernatant was discarded and the cell pellet was resuspended and counted. Different cell concentrations (5˜10×10^4 cells/mL) were prepared according to the growth cycle of each cell line and then seeded on a 96-well plate (Corning), 100 μL/well. The cells were incubated overnight at 37° C., 5% CO2. The compounds were added to the cells on the second day with 2 wells in parallel. The final concentration of organic solvent shall not exceed 1%. The cells were continually incubated for 3 to 5 days, and then subjected to MTT assay.
The compound of the present invention and the control compound were dissolved in DMSO (Sigma) respectively, with the purity of more than 98%. The compound was stored in a concentration of 10 mM at −20° C. and diluted to 2- or 10-fold series prior to use.
Dojindo CCK8 reagent kit was used as MTT assay. THERMO […] FC meter was used as microplate reader.
For adherent cells, culture medium was removed and immediately replaced with the fresh prepared medium which contains 10% CCK8 reagent (100 μL/well). For the suspension cells, CCK8 was directly added to 10% of the final concentration. The cells were continually incubated for 1˜4 h. When a dark yellow color could be observed in the solvent control wells, the absorbance value at OD450 nm was measured and the cell growth rate was calculated according to the following formula: Cell Growth Rate (%)=100*(T−T0)/(C−T0) T=optical density of drug treatment cell well—optical density of blank control well; T0=optical density of cell well before drug treatment—optical density of blank control well; C=optical density of cell well of solvent control group—optical density of blank control well. The concentration value of 50% inhibition of cell growth (GI50) was calculated according to the drug concentration and cell growth rate curve. The experiment was independently repeated 1˜3 times, and subject to biological statistical analysis. 4. Experimental Results
Tumor cell growth inhibition test was performed by selecting representative compounds (compounds 4, 11, 12, 16, 27, 68, 71, 77, 79, 89 and 116 of the present invention). The initial concentration of the compound was 5,000 nM, then it was serially diluted by 2-fold or 10-fold to 0.01 nM. The GI50 value of each test compound was calculated according to the GI50 assay and calculation method. […]

Compound | GI50 [1] | GI50 [2]
CC(C)(C)c1cc(NC(=O)Nc2ccc(-n3cnc4cc(O)ccc43)cc2)no1 [Compound 4, 1-(5-tert-butyl-isoxazol-3-yl)-3-[4-(5-hydroxy-benzimidazol-1-yl)-phenyl]-urea] | > 1000 nM | > 2500 nM
CC(C)(C)c1cc(NC(=O)Nc2ccc(-n3cnc4cc(OCCO)ccc43)cc2)no1 [Compound 11, 1-(5-tert-butyl-isoxazol-3-yl)-3-{4-[5-(2-hydroxy-ethoxyl)-benzimidazol-1-yl]-phenyl]-urea] | > 1000 nM | > 2500 nM
CC(C)(C)c1cc(NC(=O)Nc2ccc(-n3cnc4cc(OCCN5CCOCC5)ccc43)cc2)no1 [Compound 16, 1-(5-tert-butyl-isoxazol-3-yl)-3-{4-[5-(2-morpholin-4-yl-ethoxyl)-benzimidazol-1-yl]-phenyl}-urea] | > 1000 nM | > 2500 nM
CC(C)(C)c1cc(NC(=O)Nc2ccc(-n3cnc4ccc(OCCN5CCOCC5)cc43)cc2)no1 [Compound 27, 1-(5-tert-butyl-isoxazol-3-yl)-3-{4-[6-(2morpholin-4-yl-ethoxyl)-benzimidazol-1-yl]-phenyl}-urea] | 100 to 1000 nM | > 2500 nM
CC(C)(C)c1cc(NC(=O)Nc2ccc(-n3cnc4ccccc43)cc2)[nH]n1 [Compound 68, 1-(4-benzimidazol-1-yl-phenyl)-3-(5-tert-butyl-2H-pyrazol-3-yl)-urea] | > 1000 nM | > 2500 nM
COc1ccc2c(c1)ncn2-c1ccc(NC(=O)Nc2cc(C(C)(C)C)n[nH]2)cc1 [Compound 71, 1-(5-tert-butyl-2H-pyrazol-3-yl)-3-[4-(5-methoxyl-benzimidazol-1-yl)-phenyl]-urea] | > 1000 nM | > 2500 nM
COCCOc1ccc2c(c1)ncn2-c1ccc(NC(=O)Nc2cc(C(C)(C)C)n[nH]2)cc1 [Compound 77, 1-(5-tert-butyl-2H-pyrazol-3-yl)-3-{4-[5-(2-methoxyl-ethoxyl)-benzimidazol-1-yl]-phenyl}-urea] | > 1000 nM | > 2500 nM
CC(C)(C)c1cc(NC(=O)Nc2ccc(-n3cnc4cc(OCCO)ccc43)cc2)[nH]n1 [Compound 79, 1-(5-tert-butyl-2H-pyrazol-3-yl)-3-{4-[5-(2-hydroxy-ethoxyl)-benzimidazol-1-yl]-phenyl]urea] | > 1000 nM | > 2500 nM
CC(C)(C)c1cc(NC(=O)Nc2ccc(-n3cnc4cc(OCCN5CCOCC5)ccc43)cc2)[nH]n1 [Compound 89, 1-(5-tert-butyl-2H-pyrazol-3-yl)-3-{4-[5-(2-morpholin-4-yl-ethoxyl)-benzimidazol-1-yl]-phenyl}-urea] | 100 to 1000 nM | > 2500 nM
CC(C)(C)c1cc(N)n(C(=O)Nc2ccc(-n3cnc4ccccc43)cc2)n1 [Compound 116, 5-amino-3-tert-butyl-pyrazol-1-carboxylic acid (4-benzimidazol-1-yl-phenyl)-amide] | > 1000 nM | > 2500 nM
